Results reported in patent US3950352A, “2,2-Dimethyl-3R-carboxy-6S-phenyl(or phenoxy)acetamido-1-oxa-4-aza-5R-bicyclo[3,2,0]heptan-7-one and processes for their production” (Queen's University, priority 1974, dated 1976).

Assay: antibacterial activity (organism not stated)
Format: cell-based
Details: at levels of 250 mcg./ml.
Text: After overnight development in a system containing n-butanol 60:acetic acid:15: water 25, the strips were air dried and one set was sprayed with Riker penicillinase. Both sets were then subjected to bioautography on B. subtilis.

Compound: CC(C)=C(C(=O)O)N1C(=O)[C@H]2N=C(Cc3ccccc3)O[C@H]21 [oxazoline carboxylic acid, 2-benzyl-6-(1'-carboxy-2'-methylprop-1'-enyl)-1-oxa-3,6-diaza-4S,5R-bicyclo [3,2,0] hept-2-en-7-one]
- antibacterial activity: inactive
